Test results taken from ChEMBL document CHEMBL5126518, “Quercetin derivatives: Drug design, development, and biological activities, a review” (Eur J Med Chem, 2022).
In brackets after ≈: the same amount, converted by molar mass.

Experiments:
[1] = test system: Escherichia coli; experiment: Antibacterial activity against Escherichia coli ATCC 25922 assessed as cell growth inhibition incubated for 18 hrs by agar overlay method; format: functional
[2] = test system: Heyndrickxia coagulans; experiment: Antibacterial activity against Bacillus coagulans assessed as cell growth inhibition incubated for 18 hrs by agar overlay method; format: functional
[3] = test system: Proteus mirabilis; experiment: Antibacterial activity against Proteus mirabilis assessed as cell growth inhibition incubated for 18 hrs by agar overlay method; format: functional
[4] = test system: Bacillus cereus; experiment: Antibacterial activity against Bacillus cereus NAS 596 assessed as cell growth inhibition incubated for 18 hrs by agar overlay method; format: functional
[5] = test system: Bacillus subtilis; experiment: Antibacterial activity against Bacillus subtilis ATCC 6633 assessed as cell growth inhibition incubated for 18 hrs by agar overlay method; format: functional
[6] = test system: Enterobacter cloacae; experiment: Antibacterial activity against Enterobacter cloacae assessed as cell growth inhibition incubated for 18 hrs by agar overlay method; format: functional
[7] = test system: Staphylococcus aureus; experiment: Antibacterial activity against Staphylococcus aureus ATCC 6538 assessed as cell growth inhibition incubated for 18 hrs by agar overlay method; format: functional
[8] = test system: Klebsiella pneumoniae; experiment: Antibacterial activity against Klebsiella pneumoniae ATCC 13883 assessed as cell growth inhibition incubated for 18 hrs by agar overlay method; format: functional
[9] = test system: Staphylococcus aureus; experiment: Antibacterial activity against Staphylococcus aureus ATCC 12600 assessed as cell growth inhibition by agar dilution method; format: functional
[10] = test system: Escherichia coli; experiment: Antibacterial activity against Escherichia coli ATCC 25922 assessed as cell growth inhibition by agar dilution method; format: functional
[11] = Inhibition of Escherichia coli topoisomerase 2 supercoiling activity by gel electrophoresis
[12] = Inhibition of Escherichia coli topoisomerase 4 decatenation activity by gel electrophoresis
[13] = test system: Listeria monocytogenes; experiment: Antibacterial activity against Listeria monocytogenes ATCC 15313 assessed as cell growth inhibition by agar dilution method; format: functional
[14] = test system: Staphylococcus gallinarum; experiment: Antibacterial activity against Staphylococcus gallinarum ATCC 9184 assessed as cell growth inhibition by agar dilution method; format: functional
[15] = biological target: Type-1 angiotensin II receptor (Homo sapiens, UniProt P30556); experiment: Inhibition of human AT1R expressed in HEK293 cells by non-linear regression analysis; format: cell-based
Type-1 angiotensin II receptor, sequence (P30556 whole entry): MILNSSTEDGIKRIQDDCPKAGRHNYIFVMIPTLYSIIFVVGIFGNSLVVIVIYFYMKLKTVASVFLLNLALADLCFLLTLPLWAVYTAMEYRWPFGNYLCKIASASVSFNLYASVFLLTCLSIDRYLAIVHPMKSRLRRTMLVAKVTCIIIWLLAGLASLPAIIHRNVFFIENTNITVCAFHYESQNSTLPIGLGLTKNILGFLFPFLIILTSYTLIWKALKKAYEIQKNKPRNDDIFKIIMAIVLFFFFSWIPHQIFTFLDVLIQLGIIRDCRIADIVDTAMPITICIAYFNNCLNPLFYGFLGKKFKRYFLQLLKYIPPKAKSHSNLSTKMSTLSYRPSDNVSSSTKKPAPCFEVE

[16] = test system: MDA-MB-231; experiment: Antiproliferative activity against human MDA-MB-231 cells assessed as cell growth inhibition measured after 72 hrs by MTT assay; format: functional, cell-based; details: MDA-MB-231, 72 h
[17] = Antioxidant activity assessed as DPPH radical scavenging activity after 30 mins under dark condition; format: functional
[18] = biological target: UDP-galactopyranose mutase (Mycobacterium tuberculosis, UniProt P9WIQ1); experiment: Binding affinity to Mycobacterium tuberculosis UGM assessed as dissociation constant by fluorescence polarization assay
UDP-galactopyranose mutase, sequence (P9WIQ1 whole entry): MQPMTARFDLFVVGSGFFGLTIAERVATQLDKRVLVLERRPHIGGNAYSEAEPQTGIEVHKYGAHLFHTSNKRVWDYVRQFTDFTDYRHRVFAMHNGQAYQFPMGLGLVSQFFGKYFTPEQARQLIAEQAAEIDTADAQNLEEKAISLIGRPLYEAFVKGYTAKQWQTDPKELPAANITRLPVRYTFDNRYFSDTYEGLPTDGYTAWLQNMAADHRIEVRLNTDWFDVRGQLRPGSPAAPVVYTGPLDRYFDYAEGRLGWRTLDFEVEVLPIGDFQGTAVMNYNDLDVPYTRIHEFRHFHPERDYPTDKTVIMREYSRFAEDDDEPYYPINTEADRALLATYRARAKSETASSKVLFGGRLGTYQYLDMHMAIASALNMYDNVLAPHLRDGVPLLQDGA

[19] = biological target: UDP-galactopyranose mutase (Mycobacterium tuberculosis) (UniProt P9WIQ1); experiment: Inhibition of Mycobacterium tuberculosis UGM at 20 uM by HPLC inhibition assay relative to control
UDP-galactopyranose mutase (Mycobacterium tuberculosis), sequence (P9WIQ1 whole entry, looked up): as the sequence (P9WIQ1 whole entry) above

[20] = Antioxidant activity assessed as DPPH radical scavenging activity up to 2 mM relative to control; format: functional
[21] = test system: HCT-116; experiment: Anticancer activity against human HCT-116 cells xenografted in mouse assessed as fold decrease in tumor growth measured after 3 weeks by digital caliper method; format: functional
[22] = test system: HCT-116; experiment: Antiproliferative activity against human HCT-116 cells assessed as cell growth inhibition by Z2 coulter counter based analysis; format: functional
[23] = organism: Mus musculus; experiment: Anticancer activity against ApcMin harboring mouse model assessed as fold increase in p53 expression measured after 16 weeks by […]; format: functional, Neoplasm
[24] = test system: MDA-MB-231; experiment: Antiproliferative activity against human MDA-MB-231 cells assessed as cell growth inhibition measured after 48 hrs by MTT assay; format: functional, cell-based; details: MDA-MB-231, 48 h
[25] = test system: MDA-MB-231; experiment: Antiproliferative activity against human MDA-MB-231 cells assessed as cell growth inhibition measured after 48 hrs by MTT assay relative to control; format: functional; set-up: scale not given: the % may be the effect or the level left
[26] = Competitive inhibition of xanthine oxidase (unknown origin) at 0.05 uM using xanthine as substrate preincubated with substrate for 1 min followed by compound addition by double beam spectrophotometer analysis relative to control
[27] = test system: Candida albicans; experiment: Antifungal activity against Candida albicans 13/15 assessed as fungal growth inhibition measured after 24 hrs by microdilution assay; format: functional
[28] = test system: Candida albicans; experiment: Antifungal activity against Candida albicans 10/15 assessed as fungal growth inhibition measured after 24 hrs by microdilution assay; format: functional
[29] = test system: Candida albicans; experiment: Antifungal activity against Candida albicans 527/14 assessed as fungal growth inhibition measured after 24 hrs by microdilution assay; format: functional
[30] = test system: Candida albicans; experiment: Antifungal activity against Candida albicans 475/15 assessed as fungal growth inhibition measured after 24 hrs by microdilution assay; format: functional
[31] = test system: U-87 MG; experiment: Antiproliferative activity against human U87 cells assessed as reduction in cell viability incubated for 48 hrs by SRB assay; format: functional, U-87MG ATCC
[32] = test system: LN-229; experiment: Antiproliferative activity against human LN-229 cells assessed as reduction in cell viability incubated for 48 hrs by SRB assay; format: functional
[33] = biological target: Bcl-2-like protein 1 (Homo sapiens) (UniProt Q07817); experiment: Binding affinity to recombinant human Bcl-xL assessed as change in enthalpy by MM-PBSA method
Bcl-2-like protein 1 (Homo sapiens), sequence (Q07817 whole entry): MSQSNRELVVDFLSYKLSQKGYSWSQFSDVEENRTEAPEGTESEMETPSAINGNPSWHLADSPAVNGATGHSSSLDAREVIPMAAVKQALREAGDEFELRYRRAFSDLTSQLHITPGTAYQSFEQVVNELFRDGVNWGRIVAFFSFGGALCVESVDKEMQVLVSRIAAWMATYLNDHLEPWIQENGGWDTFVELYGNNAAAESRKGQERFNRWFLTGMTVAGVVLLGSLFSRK

[34] = Selectivity ratio of GI50 for cytotoxicity against human DU-145 cells to GI50 for cytotoxicity against human PC-3 cells by MTT assay; format: functional
[35] = test system: PC-3; experiment: Cytotoxicity against human PC-3 cells assessed as cell growth inhibition measured after 48 hrs by MTT assay; format: functional
[36] = Antioxidant activity assessed as ABTS radical scavenging activity at 5 wt% incubated for 6 mins in presence of Si and PCL50 by UV spectrophotometer analysis relative to control; format: functional
[37] = Competitive inhibition of xanthine oxidase (unknown origin) at 0.4 uM using xanthine as substrate preincubated with substrate for 1 min followed by compound addition by double beam spectrophotometer analysis relative to control
[38] = Metal chelating activity assessed as compound-Fe2+ complex formation by measuring binding energy
[39] = Non-competitive inhibition of xanthine oxidase (unknown origin) at 0.4 uM using xanthine as substrate preincubated with substrate for 1 min followed by compound addition by double beam spectrophotometer analysis relative to control
[40] = test system: MCF7; experiment: Antiproliferative activity against human MCF7 assessed as reduction in cell viability incubated for 48 hrs by MTT assay; format: functional
[41] = test system: J774.A1; experiment: Inhibition of LPS-induced NO production in mouse J774.A1 cells pre-incubated with compound for 1 hr followed by LPS stimulation for 24 hrs by ELISA assay; format: functional, cell-based
[42] = Antioxidant activity assessed as ABTS radical scavenging activity at 15 wt% incubated for 6 mins in presence of Si and PCL50 by UV spectrophotometer analysis relative to control; format: functional
[43] = biological target: Urease subunit alpha/Urease subunit beta (Helicobacter pylori (strain ATCC 700392 / 26695) (Campylobacterpylori), UniProt P69996); experiment: Inhibition of Helicobacter pylori urease assessed as measuring ammonia production incubated for 1.5 hr by indophenol method; format: protein-complex assay
Urease subunit alpha/Urease subunit beta, sequence (P69996 whole entry): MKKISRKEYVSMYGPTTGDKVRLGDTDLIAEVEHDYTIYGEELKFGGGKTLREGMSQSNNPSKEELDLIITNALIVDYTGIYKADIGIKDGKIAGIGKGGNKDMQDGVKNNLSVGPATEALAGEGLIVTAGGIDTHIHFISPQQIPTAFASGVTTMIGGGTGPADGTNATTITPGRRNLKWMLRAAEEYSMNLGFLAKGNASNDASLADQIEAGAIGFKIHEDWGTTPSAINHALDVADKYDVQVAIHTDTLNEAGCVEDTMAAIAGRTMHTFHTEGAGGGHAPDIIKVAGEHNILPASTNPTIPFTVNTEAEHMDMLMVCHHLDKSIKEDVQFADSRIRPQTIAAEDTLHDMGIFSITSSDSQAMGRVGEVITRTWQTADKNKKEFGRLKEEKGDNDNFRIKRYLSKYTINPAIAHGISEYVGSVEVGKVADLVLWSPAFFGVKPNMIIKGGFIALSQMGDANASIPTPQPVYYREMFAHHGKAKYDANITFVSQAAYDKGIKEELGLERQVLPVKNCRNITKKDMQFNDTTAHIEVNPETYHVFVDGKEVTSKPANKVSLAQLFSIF
Urease subunit alpha/Urease subunit beta, sequence (P14916 whole entry, further chain): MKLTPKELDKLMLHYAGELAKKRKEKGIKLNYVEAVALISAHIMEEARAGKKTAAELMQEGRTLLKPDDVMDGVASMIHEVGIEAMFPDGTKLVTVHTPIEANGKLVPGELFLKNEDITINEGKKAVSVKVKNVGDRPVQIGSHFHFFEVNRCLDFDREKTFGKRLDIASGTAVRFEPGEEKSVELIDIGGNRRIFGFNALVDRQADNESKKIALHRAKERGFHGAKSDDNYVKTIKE

[44] = Metal chelating activity assessed as compound-Cu2+ complex formation by measuring binding energy
[45] = Antioxidant activity assessed as ABTS radical scavenging activity at 10 wt% incubated for 6 mins in presence of Si and PCL50 by UV spectrophotometer analysis relative to control; format: functional
[46] = Metal chelating activity assessed as Zn2+-compound complex formation by measuring binding energy
[47] = test system: MCF7; experiment: Induction of apoptosis in human MCF7 cells assessed as early apoptotic cells at 50 uM measured after 12 hrs by annexin V-FITC/propidium iodide staining based flow cytometry relative to control; format: functional

O=c1c(O)c(-c2ccccc2)oc2cc(O)cc(O)c12 [GALANGIN]
MIC [1]: 0.25 µg/mL (≈ 0.925 µM)
MIC [2]: 0.25 µg/mL (≈ 0.925 µM)
MIC [3]: 0.25 µg/mL (≈ 0.925 µM)
MIC [4]: 0.25 µg/mL (≈ 0.925 µM)
MIC [5]: 0.25 µg/mL (≈ 0.925 µM)
MIC [6]: 0.25 µg/mL (≈ 0.925 µM)
MIC [7]: 0.25 µg/mL (≈ 0.925 µM)
MIC [8]: 0.25 µg/mL (≈ 0.925 µM)

CC(=O)OC[C@H]1OC(OC(C)=O)[C@H](NCc2c(O)cc(O)c3c(=O)cc(-c4ccc(O)c(O)c4)oc23)[C@@H](OC(C)=O)[C@@H]1OC(C)=O (stereo partly drawn)
MIC [9]: 1 µg/mL (≈ 1.55 µM)
MIC [10]: 2 µg/mL (≈ 3.1 µM)
IC50 [11]: 0.25 µg/mL (≈ 0.387 µM)
IC50 [12]: 0.25 µg/mL (≈ 0.387 µM)
MIC [13]: 0.5 µg/mL (≈ 0.775 µM)
MIC [14]: 0.05 µg/mL (≈ 0.0775 µM)

CCCCc1nc(Cl)c(COC(=O)CCC(=O)Oc2ccc(-c3oc4cc(O)cc(O)c4c(=O)c3O)cc2O)n1Cc1ccc(-c2ccccc2-c2nnn[nH]2)cc1
IC50 [15]: 0.14 µM

C[C@@H]1O[C@@H](OC[C@H]2O[C@@H](Oc3c(-c4ccc(O)c(O)c4)oc4c(CN5CCCC5)c(O)c(CN5CCCC5)c(O)c4c3=O)[C@H](O)[C@@H](O)[C@@H]2O)[C@H](O)[C@H](O)[C@H]1O
IC50 [16]: 7.57 µM

COc1cc(OC)c2/c(=N/N)c(OC)c(-c3ccc(OC)c(OC)c3)oc2c1
IC50 [17]: 40 µM

COc1cc(OC)c2/c(=N/c3ccccc3)c(OC)c(-c3ccc(OC)c(OC)c3)oc2c1
IC50 [17]: 490 µM

O=c1c(O)c(-c2ccc(O)c(O)c2)oc2c(CN3CCCC3)c(O)cc(O)c12
Kd [18]: > 2000 µM
inhibition [19]: 47.8%

Nc1c(-c2ccc(O)c(O)c2)oc2cc(O)cc(O)c2c1=O
Activity [20]: 80%

O=c1c(O)c(-c2ccc(O)c(O)c2)oc2c(CN3CCOCC3)c(O)cc(O)c12
inhibition [19]: 100%

COc1cc(OC)c2/c(=N/c3cc(OC)c(OC)c(OC)c3)c(OC)c(-c3ccc(OC)c(OC)c3)oc2c1
IC50 [17]: 220 µM

COc1cc(-c2oc3ccccc3c(=O)c2O)cc(OC)c1OC
fold change (FC) [21]: 1.5
IC50 [22]: 3.3 µM
fold change (FC) [23]: 3

O=c1c(O)c(-c2ccc(O)c(O)c2)oc2c(CN3CCCCC3)c(O)cc(O)c12
Kd [18]: > 2000 µM
inhibition [19]: 23.2%

COc1cc(OC)c2/c(=[S+]/C)c(OC)c(-c3ccc(OC)c(OC)c3)oc2c1.[I-]
IC50 [24]: 1.84 µM
Activity [25]: 38.1%
Activity [17]: 0.05 mM

O=c1oc2c(O)ccc(-c3oc4cc(O)cc(O)c4c(=O)c3O)c2s1
inhibition [26]: 50%

COc1cc(OC)c2c(=S)c(OC)c(-c3ccc(OC)c(OC)c3)oc2c1
IC50 [17]: 360 µM

COc1cc(OC)c2c(=O)c(OC)c(-c3ccc(OC)c(OC)c3)oc2c1
IC50 [24]: 2.04 µM
Activity [25]: 43.7%
IC50 [17]: 620 µM

C[C@@H]1O[C@@H](OC[C@H]2O[C@@H](Oc3c(-c4ccc(O)c(O)c4)oc4cc(O)cc(O)c4c3=O)[C@H](O)[C@@H](O)[C@@H]2O)[C@H](O)[C@H](O)[C@H]1O [RUTIN]
MIC [27]: 37.5 µg/mL (≈ 61.4 µM)
MIC [28]: 37.5 µg/mL (≈ 61.4 µM)
MIC [29]: 37.5 µg/mL (≈ 61.4 µM)
MIC [30]: 37.5 µg/mL (≈ 61.4 µM)

O=c1cc(-c2ccc(O)c(O)c2)oc2cc(O)cc(O)c12 [LUTEOLIN]
MIC [27]: 37.5 µg/mL (≈ 131 µM)
MIC [28]: 37.5 µg/mL (≈ 131 µM)
MIC [29]: 37.5 µg/mL (≈ 131 µM)
IC50 [16]: 7.29 µM
MIC [30]: 37.5 µg/mL (≈ 131 µM)

CCCCc1nc(Cl)c(COC(=O)CCC(=O)Oc2cc(-c3oc4cc(O)cc(O)c4c(=O)c3O)ccc2O)n1Cc1ccc(-c2ccccc2-c2nnn[nH]2)cc1
Activity [31]: 38%
Activity [32]: 39%
IC50 [15]: 0.14 µM

O=c1c(O)c(-c2ccc(O)c(O)c2)oc2c(CN3CCSCC3)c(O)cc(O)c12
inhibition [19]: 57.9%

COc1ccc(CNCc2c(O)cc(O)c3c(=O)cc(-c4ccc(O)c(O)c4)oc23)cc1
IC50 [11]: 0.25 µg/mL (≈ 0.574 µM)
IC50 [12]: 0.25 µg/mL (≈ 0.574 µM)

O=C(O)CC[C@H](NC(=O)Oc1ccc(-c2oc3cc(O)cc(O)c3c(=O)c2O)cc1O)C(=O)O
deltaH [33]: 47.2 kcal/mol
RatioGI50 [34]: 17
GI50 [35]: 6 µM

O=c1c(O)c(-c2ccc(O)c(O)c2)oc2cc(O)cc(O)c12 [QUERCETIN]
MIC [27]: 37.5 µg/mL (≈ 124 µM)
MIC [28]: 37.5 µg/mL (≈ 124 µM)
Activity [36]: 15.6%
MIC [29]: 37.5 µg/mL (≈ 124 µM)
Activity [20]: 80%
inhibition [37]: 50%
Activity [38]: 694 kcal/mol
inhibition [39]: 50%
Activity [40]: 70.8%
IC50 [41]: 49.1 µM
Activity [42]: 8.4%
Ki [43]: 9.34 µM
Activity [44]: 918 kcal/mol
Activity [45]: 24.7%
MIC [30]: 37.5 µg/mL (≈ 124 µM)
IC50 [17]: 4 µM
Activity [46]: 939 kcal/mol
Activity [47]: 44.1%

COc1cc(-c2oc3cc(O)cc(O)c3c(=O)c2O[C@@H]2O[C@H](C(=O)[O-])[C@@H](O)[C@H](O)[C@H]2O)ccc1O.[Na+]
Activity [40]: 49.8%
